Results on 23 compounds are retold here after patent EP1457483A1, “Cationic lipids with serine backbone” (Ruhr-Universität Bochum, priority 2003, dated 2004).

SMILES strings stand for the structures.

The test system of the test is COS-7 cells. Put plainly: Automated lipofection screening: GFP-luciferase reporter gene transfer (luciferase activity per protein content). It counts as cell-based, African green monkey. Particulars: for Maximum transfection efficiency, MW (mean value), Helper lipid: DOPE / Maximum transfection efficiency, MW (mean value), Helper lipid: CHOL / Maximum transfection efficiency, MW (mean value), Helper lipid: without: pEGFPLuc plasmid, point is thousands separator; for Maximum transfection efficiency, MW (mean value), Helper lipid: DOPE: cationic/helper lipid 1:0.5 with DOPE; for Maximum transfection efficiency, MW (mean value), Helper lipid: DOPE / Maximum transfection efficiency, MW (mean value), Helper lipid: CHOL: at the LDR giving the maximum; for Maximum transfection efficiency, MW (mean value), Helper lipid: CHOL: cationic/helper lipid 1:0.5 with cholesterol; for Maximum transfection efficiency, MW (mean value), Helper lipid: without: no helper lipid, at the LDR (1:1-15:1) giving the maximum. The protocol:
Screening the combinatorial lipid library for lipofection properties: Goal of this first step was to compare transfection efficiency of these structurally related cationic lipids with systematically modified hydrocarbon chain compositions for the development of suitable lipofection reagents and protocols and to study the relationship between structure and transfection efficiency of this new class of cationic lipids for gene transfer. All lipids (MS-1 to MS-50, table 1) were tested using a standard protocol: From each lipid, twenty four different lipoplexes were formed containing either no helper lipid or the helper lipids DOPE and CHOL at molar amounts (1:0.5), respectively, using eight different lipid:DNA-charge ratios (LDR) from 1:1 - 15:1, resulting in a lipofection profile for each lipid. The COS-7 cell-line was used for this lipofection study since COS-7 is easy to transfect and differences between the lipids are easy to identify.
Cell culture: SV40 transformed African green monkey kidney cell line COS-7 (ATCC CRL-1651) was routinely passaged in DMEM (GIBCO BRL, Karlsruhe, Germany), respectively, supplemented with 1% L-glutamin solution (100x), 1% Penicillin/Streptomycin solution (100x) (GIBCO BRL, Karlsruhe, Germany), and 10% FCS (BioWhittaker, Verviers, Belgium) at 37°C with 5% CO2 in humidified atmosphere. For the screening cells were maintained in 96-well culture plates (Greiner, Frickenhausen, Germany) in 100 µl DMEM, 10 % FCS, 1 % Penicillin-streptomycin in a humidified atmosphere at 37 °C/5 % CO2. 24 h prior to transfection, the cells were seeded into the microtiter plate at 10,000 cells per well to reach a confluency of 50 % at the time of transfection. Dendritic cells: Dendritic cells (DC) were derived from highly purified circulating CD14(+) monocytes: In a first step, peripheral blood mononuclear leukocytes (PBL) from healthy control persons were isolated by Ficoll-Paque (Pharmacia Biotech AB, Uppsala, Sweden) density centrifugation. The following immunomagnetic purification of the monocytes from PBL was performed using CD14 Microbeads and MiniMACS high gradient magnetic separation columns (Miltenyi Biotech, Bergisch Gladbach, Germany) according to manufacturer's instructions. Isolated monocytes (5 x 10^5/well) were cultured in RPMI supplemented with 10 % FCS, or serum-free Macrophage-SFM medium (GIBCO BRL, Karlsruhe, Germany) supplemented with human recombinant GM-CSF (0.05µg/ml) and IL-4 (0.025µg/ml) (PromoCell, Heidelberg, Germany) in 6-well plates. Aliquots of the cells were reanalyzed by FACS with anti-CD14 mAbs (Pharmingen, San Diego, CA). After 5-6 days non-adherent cells were collected and purity of DCs was determined by FACS analysis using a FACSort flow cytometer (Becton Dickinson, Mountain View, CA) and the CellQuest software for data processing as recently described (Jantscheff, P. et al., J. Immunol. Methods 163(1):91-7 (1993)).

For `CCCCCCCCCCCCCCCCCC[N+](C)(CCCCCCCCCCCCCCCCCC)[C@@H](CO)C(=O)NCCCCCCN` [compound 49], the “Maximum transfection efficiency, MW (mean value), Helper lipid: DOPE” value (“Maximum transfection efficiency, MW … DOPE” for short) came to 7.563 RLU; the “Maximum transfection efficiency, MW (mean value), Helper lipid: CHOL” value (from here on “Maximum transfection efficiency, MW … CHOL”) is on record as 10.245 RLU; the “Maximum transfection efficiency, MW (mean value), Helper lipid: without” value (from here on “Maximum transfection efficiency, MW … without”) was 2.177 RLU.

With `CCCCCCCC/C=C\CCCCCCCCN(CCCCCCCC/C=C\CCCCCCCC)[C@@H](CO)C(=O)NCCCN` [compound 10], the “Maximum transfection efficiency, MW … DOPE” value came to 92.769 RLU; the “Maximum transfection efficiency, MW … CHOL” value is reported as 28.835 RLU; the “Maximum transfection efficiency, MW … without” value turned out to be 13.461 RLU.

For `CCCCCCCCCCCCCCCCCCN(CCCCCCCCCCCCCCCCCC)[C@@H](CO)C(=O)NCCCCN` [compound 14], the “Maximum transfection efficiency, MW … DOPE” value is recorded as 11.715 RLU; the “Maximum transfection efficiency, MW … CHOL” value is recorded as 42.270 RLU; the “Maximum transfection efficiency, MW … without” value turned out to be 1.956 RLU.

Consider `CCCCCCCCCCCC[N+](C)(CCCCCCCCCCCC)[C@@H](CO)C(=O)NCCCCCCN` [compound 46], for which the “Maximum transfection efficiency, MW … DOPE” value was found to be 560 RLU; the “Maximum transfection efficiency, MW … CHOL” value is listed as 766 RLU; the “Maximum transfection efficiency, MW … without” value is 956 RLU.

As to `CCCCCCCCCCCCCCCC[N+](C)(CCCCCCCCCCCCCCCC)[C@@H](CO)C(=O)NCCCCCN` [compound 43], the “Maximum transfection efficiency, MW … DOPE” value was 169.621 RLU; the “Maximum transfection efficiency, MW … CHOL” value was found to be 222.652 RLU; the “Maximum transfection efficiency, MW … without” value is 6.944 RLU.

Consider `CCCCCCCCCCCCCCN(CCCCCCCCCCCCCC)[C@@H](CO)C(=O)NCCCCCN` [compound 17], for which the “Maximum transfection efficiency, MW … DOPE” value turned out to be 453.572 RLU; the “Maximum transfection efficiency, MW … CHOL” value is listed as 237.556 RLU; the “Maximum transfection efficiency, MW … without” value was found to be 249.143 RLU.

As for `CCCCCCCC/C=C\CCCCCCCC[N+](C)(CCCCCCCC/C=C\CCCCCCCC)[C@@H](CO)C(=O)NCCCCCN` [compound 45], the “Maximum transfection efficiency, MW … DOPE” value stood at 69.821 RLU; the “Maximum transfection efficiency, MW … CHOL” value was 64.111 RLU; the “Maximum transfection efficiency, MW … without” value is 14.092 RLU.

With `CCCCCCCCCCCC[N+](C)(CCCCCCCCCCCC)[C@@H](CO)C(=O)NCCN` [compound 26], the “Maximum transfection efficiency, MW … DOPE” value is reported as 846 RLU; the “Maximum transfection efficiency, MW … CHOL” value is 16.919 RLU; the “Maximum transfection efficiency, MW … without” value amounted to 3.196 RLU.

`CCCCCCCCCCCCCCN(CCCCCCCCCCCCCC)[C@@H](CO)C(=O)NCCCCN` [compound 12]: the “Maximum transfection efficiency, MW … DOPE” value is reported as 167.970 RLU; the “Maximum transfection efficiency, MW … CHOL” value worked out at 274.483 RLU; the “Maximum transfection efficiency, MW … without” value turned out to be 440.931 RLU.

With `CCCCCCCCCCCCCCCC[N+](C)(CCCCCCCCCCCCCCCC)[C@@H](CO)C(=O)NCCCN` [compound 33], the “Maximum transfection efficiency, MW … DOPE” value stood at 201.586 RLU; the “Maximum transfection efficiency, MW … CHOL” value is reported as 372.446 RLU; the “Maximum transfection efficiency, MW … without” value stood at 49.603 RLU.

Regarding `CCCCCCCCCCCCCC[N+](C)(CCCCCCCCCCCCCC)[C@@H](CO)C(=O)NCCN` [compound 27], the “Maximum transfection efficiency, MW … DOPE” value amounted to 196.400 RLU; the “Maximum transfection efficiency, MW … CHOL” value turned out to be 311.891 RLU; the “Maximum transfection efficiency, MW … without” value worked out at 21.934 RLU.

As to `CCCCCCCCCCCCCCCCCC[N+](C)(CCCCCCCCCCCCCCCCCC)[C@@H](CO)C(=O)NCCN` [MS-29], the “times higher activity in only one of the helper lipid combinations” value (best combination against the other combinations) is listed as 2.5 - 11.5 times.

As for `CCCCCCCCCCCCN(CCCCCCCCCCCC)[C@@H](CO)C(=O)NCCN` [compound 1], the “Maximum transfection efficiency, MW … DOPE” value was determined as 172.116 RLU; the “Maximum transfection efficiency, MW … CHOL” value turned out to be 264.581 RLU; the “Maximum transfection efficiency, MW … without” value is given as 211.937 RLU.

`CCCCCCCCCCCCCCN(CCCCCCCCCCCCCC)[C@@H](CO)C(=O)NCCCN` [compound 7]: the “Maximum transfection efficiency, MW … DOPE” value amounted to 131.970 RLU; the “Maximum transfection efficiency, MW … CHOL” value is reported as 464.342 RLU; the “Maximum transfection efficiency, MW … without” value was determined as 217.062 RLU.

For `CCCCCCCCCCCCCCCCCCN(CCCCCCCCCCCCCCCCCC)[C@@H](CO)C(=O)NCCCCCCN` [compound 24], the “Maximum transfection efficiency, MW … DOPE” value is 21.009 RLU; the “Maximum transfection efficiency, MW … CHOL” value came out at 20.328 RLU; the “Maximum transfection efficiency, MW … without” value came to 920 RLU.

In the case of `CCCCCCCCCCCCCCCC[N+](C)(CCCCCCCCCCCCCCCC)[C@@H](CO)C(=O)NCCN` [compound 28], the “Maximum transfection efficiency, MW … DOPE” value was found to be 190.444 RLU; the “Maximum transfection efficiency, MW … CHOL” value amounted to 461.747 RLU; the “Maximum transfection efficiency, MW … without” value is given as 171.272 RLU.

Regarding `CCCCCCCCCCCCCCCCN(CCCCCCCCCCCCCCCC)[C@@H](CO)C(=O)NCCCCN` [compound 13], the “Maximum transfection efficiency, MW … DOPE” value came out at 30.635 RLU; the “Maximum transfection efficiency, MW … CHOL” value is 42.604 RLU; the “Maximum transfection efficiency, MW … without” value was found to be 15.287 RLU.

As to `CCCCCCCCCCCCCCCCN(CCCCCCCCCCCCCCCC)[C@@H](CO)C(=O)NCCCCCN` [compound 18], the “Maximum transfection efficiency, MW … DOPE” value was found to be 26.400 RLU; the “Maximum transfection efficiency, MW … CHOL” value is 42.592 RLU; the “Maximum transfection efficiency, MW … without” value was 22.150 RLU.

Turning to `CCCCCCCCCCCCCCCCCC[N+](C)(CCCCCCCCCCCCCCCCCC)[C@@H](CO)C(=O)NCCN` [compound 29], the “Maximum transfection efficiency, MW … DOPE” value worked out at 24.095 RLU; the “Maximum transfection efficiency, MW … CHOL” value amounted to 137.404 RLU; the “Maximum transfection efficiency, MW … without” value stood at 43.875 RLU.

For the compound `CCCCCCCC/C=C\CCCCCCCCN(CCCCCCCC/C=C\CCCCCCCC)[C@@H](CO)C(=O)NCCCCN` [compound 15], the “Maximum transfection efficiency, MW … DOPE” value came to 340.414 RLU; the “Maximum transfection efficiency, MW … CHOL” value is 243.273 RLU; the “Maximum transfection efficiency, MW … without” value is recorded as 232.694 RLU.

For `CCCCCCCCCCCCCC[N+](C)(CCCCCCCCCCCCCC)[C@@H](CO)C(=O)NCCCCCCN` [compound 47], the “Maximum transfection efficiency, MW … DOPE” value came to 50.115 RLU; the “Maximum transfection efficiency, MW … CHOL” value is on record as 56.974 RLU; the “Maximum transfection efficiency, MW … without” value was found to be 533 RLU.

As to `CCCCCCCC/C=C\CCCCCCCC[N+](C)(CCCCCCCC/C=C\CCCCCCCC)[C@@H](CO)C(=O)NCCCCN` [compound 40], the “Maximum transfection efficiency, MW … DOPE” value is listed as 48.692 RLU; the “Maximum transfection efficiency, MW … CHOL” value is recorded as 119.285 RLU; the “Maximum transfection efficiency, MW … without” value worked out at 12.263 RLU.

As for `CCCCCCCCCCCC[N+](C)(CCCCCCCCCCCC)[C@@H](CO)C(=O)NCCCCN` [compound 36], the “Maximum transfection efficiency, MW … DOPE” value was determined as 26.495 RLU; the “Maximum transfection efficiency, MW … CHOL” value is on record as 3.829 RLU; the “Maximum transfection efficiency, MW … without” value is listed as 2.064 RLU.
